For experiment [1], the target named is T1, DNA-PK (Homo sapiens, UniProt P78527).
T1 construct: purchased Invitrogen PR9107A
Briefly: DNA-PK Assay for Biochemical Enzymatic Inhibition (ADP Glo Kinase assay). Particulars: Table 1. The method in brief:
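Human DNA-PK (25 ng) preincubated 15 min with compounds (ten three-fold dilutions) in HEPES pH 7.5, MgCl2, KCl, calf thymus DNA buffer, then substrate 434.4 μM and ATP 64.4 μM (final) for 60 min at room temperature. ADP-Glo luminescence; percent inhibition fitted by four-parameter regression for IC50.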
On the technique in general: ADP-Glo turns the ADP formed in a reaction into a luminescent signal.

Experiment [2] deals with T2, DNA-PK phosphorylation at Serine 2056 (Homo sapiens, UniProt P78527).
T2 construct: host or cells: FaDu
Briefly: Cellular Assay for Inhibition of DNA-PK Phosphorylation at Serine 2056 (FaDu cells, neocarzinostatin, sandwich ELISA). Particulars: Table 1. Format: cell-based. The gist of the method: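 FaDu cells were pretreated with compound (0.3% DMSO) for 1 h, then exposed to neocarzinostatin at 1 μg/mL final for 2 h to induce DSBs. Protein-normalized lysates were assayed by MSD sandwich ELISA for total and pSer2056 DNA-PK. IC50 came from variable-slope fits of % inhibition relative to DMSO and NCS controls.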

In the case of `CN(C)C(=O)c1cnc(N[C@H]2CC[C@@H](Oc3nc(N4CCOCC4)cc4ncccc34)CC2)nc1` [Compound 53, N,N-dimethyl-2-(((1s,4s)-4-((7-morpholino-1,6-naphthyridin-5-yl)oxy)cyclohexyl)amino)pyrimidine-5-carboxamide], the half-maximal inhibitory concentration (IC50) is 0.0005 to 0.001 µM in experiment [1] and less than 0.1 µM in experiment [2].
Taken in the same sequence, the figures for `c1cnc2cc(N3CCOCC3)nc(O[C@H]3CC[C@@H](Nc4ncnc5ccoc45)CC3)c2c1` [Compound 80a, N-((1s,4s)-4-((7-morpholino-1,6-naphthyridin-5-yl)oxy)cyclohexyl)furo[3,2-d]pyrimidin-4-amine] were less than 0.0005 µM and 0.1 to 1 µM.
In the case of `Cc1nc(N[C@H]2CC[C@@H](Oc3nc(N4CCOCC4)cc4ncccc34)CC2)c2occc2n1` [Compound 81, 2-methyl-N-((1s,4s)-4-((7-morpholino-1,6-naphthyridin-5-yl)oxy)cyclohexyl)furo[3,2-d]pyrimidin-4-amine], the concentration for half-maximal inhibition (IC50) in experiment [1] was less than 0.0005 µM; in experiment [2], 0.1 to 1 µM.
The matching figures for `c1cnc2cc(N3CCOCC3)nc(O[C@H]3CC[C@@H](Nc4ncnc5occc45)CC3)c2c1` [Compound 82, N-((1s,4s)-4-((7-morpholino-1,6-naphthyridin-5-yl)oxy)cyclohexyl)furo[2,3-d]pyrimidin-4-amine]: less than 0.0005 µM and less than 0.1 µM.
`c1cnc2cc(N3CCOCC3)nc(O[C@H]3CC[C@@H](Nc4ncnc5ccsc45)CC3)c2c1` [Compound 83, N-((1s,4s)-4-((7-morpholino-1,6-naphthyridin-5-yl)oxy)cyclohexyl)thieno[3,2-d]pyrimidin-4-amine]: the results for the IC50 in experiment [1] and in experiment [2] were less than 0.0005 µM and less than 0.1 µM, respectively.
Turning to `c1cnc2cc(N3CCOCC3)nc(O[C@H]3CC[C@@H](Nc4ncc5sccc5n4)CC3)c2c1` [Compound 84, N-((1s,4s)-4-((7-Morpholino-1,6-naphthyridin-5-yl)oxy)cyclohexyl)thieno[3,2-d]pyrimidin-2-amine], the concentration for half-maximal inhibition (IC50) was less than 0.0005 µM in experiment [1] and 0.1 to 1 µM in experiment [2].
The matching figures for `c1cnc2cc(N3CCOCC3)nc(O[C@H]3CC[C@@H](Nc4ncc5[nH]ccc5n4)CC3)c2c1` [Compound 85, N-((1s,4s)-4-((7-Morpholino-1,6-naphthyridin-5-yl)oxy)cyclohexyl)-5H-pyrrolo[3,2-d]pyrimidin-2-amine]: less than 0.0005 µM and less than 0.1 µM.
In the case of `Cn1ccc2nc(N[C@H]3CC[C@@H](Oc4nc(N5CCOCC5)cc5ncccc45)CC3)ncc21` [Compound 87, 5-Methyl-N-((1s,4s)-4-((7-morpholino-1,6-naphthyridin-5-yl)oxy)cyclohexyl)-5H-pyrrolo[3,2-d]pyrimidin-2-amine], the figures for the IC50 in experiment [1] and in experiment [2] were less than 0.0005 µM and less than 0.1 µM, respectively.
Taken in the same sequence, the figures for `Cn1cnc2cnc(N[C@H]3CC[C@@H](Oc4nc(N5CCOCC5)cc5ncccc45)CC3)nc21` [Compound 88, 9-Methyl-N-((1s,4s)-4-((7-morpholino-1,6-naphthyridin-5-yl)oxy)cyclohexyl)-9H-purin-2-amine] were 0.0005 to 0.001 µM and 0.1 to 1 µM.
As to `c1cnc2cc(N3CCOCC3)nc(O[C@H]3CC[C@@H](Nc4ccn5nccc5n4)CC3)c2c1` [Compound 89, N-((1s,4s)-4-((7-Morpholino-1,6-naphthyridin-5-yl)oxy)cyclohexyl)pyrazolo[1,5-a]pyrimidin-5-amine], the IC50 in experiment [1] lay within 0.0005 to 0.001 µM; in experiment [2], 0.1 to 1 µM.
`O=C(N[C@H]1CC[C@@H](Oc2nc(N3CCOCC3)cc3ncccc23)CC1)c1ccncc1` [Compound 113, N-((1s,4s)-4-((7-morpholino-1,6-naphthyridin-5-yl)oxy)cyclohexyl)isonicotinamide]: the values for the IC50 in experiment [1] and in experiment [2] were less than 0.0005 µM and less than 0.1 µM, respectively.
Turning to `O=C(N[C@H]1CC[C@@H](Oc2nc(N3CCOCC3)cc3ncccc23)CC1)c1cccnc1` [Compound 115, N-((1s,4s)-4-((7-morpholino-1,6-naphthyridin-5-yl)oxy)cyclohexyl)nicotinamide], the concentration for half-maximal inhibition (IC50) in experiment [1] is less than 0.0005 µM; in experiment [2], less than 0.1 µM.
On to `O=C(N[C@H]1CC[C@@H](Oc2nc(N3CCOCC3)cc3ncccc23)CC1)c1ccncn1` [Compound 118, N-((1s,4s)-4-((7-morpholino-1,6-naphthyridin-5-yl)oxy)cyclohexyl)pyrimidine-4-carboxamide], for which the values for the IC50 in experiment [1] and in experiment [2] were 0.0005 to 0.001 µM and 0.1 to 1 µM, respectively.
For `O=C(N[C@H]1CC[C@@H](Oc2nc(N3CCOCC3)cc3ncccc23)CC1)c1ccnnc1` [Compound 121, N-((1s,4s)-4-((7-morpholino-1,6-naphthyridin-5-yl)oxy)cyclohexyl)pyridazine-4-carboxamide], the 50% inhibitory concentration (IC50) in experiment [1] was 0.0005 to 0.001 µM; in experiment [2], less than 0.1 µM.
The matching figures for `O=C(N[C@H]1CC[C@@H](Oc2nc(N3CCOCC3)cc3ncccc23)CC1)c1cncnc1` [Compound 122, N-((1s,4s)-4-((7-Morpholino-1,6-naphthyridin-5-yl)oxy)cyclohexyl)pyrimidine-5-carboxamide]: 0.001 to 0.01 µM and 0.1 to 1 µM.
On to `O=C(N[C@H]1CC[C@@H](Oc2nc(N3CCOCC3)cc3ncccc23)CC1)c1ncccn1` [Compound 123, N-((1s,4s)-4-((7-Morpholino-1,6-naphthyridin-5-yl)oxy)cyclohexyl)pyrimidine-2-carboxamide], for which the concentration for half-maximal inhibition (IC50) is less than 0.0005 µM in experiment [1] and 0.1 to 1 µM in experiment [2].
The matching figures for `O=C(N[C@H]1CC[C@@H](Oc2nc(N3CCOCC3)cc3ncccc23)CC1)c1ccco1` [Compound 132, N-((1s,4s)-4-((7-Morpholino-1,6-naphthyridin-5-yl)oxy)cyclohexyl)furan-2-carboxamide]: less than 0.0005 µM and less than 0.1 µM.
Taken in the same sequence, the figures for `O=C(N[C@H]1CC[C@@H](Oc2nc(N3CCOCC3)cc3ncccc23)CC1)c1ccc(C(F)(F)F)o1` [Compound 133, N-((1s,4s)-4-((7-Morpholino-1,6-naphthyridin-5-yl)oxy)cyclohexyl)-5-(trifluoromethyl)furan-2-carboxamide] were 0.0005 to 0.001 µM and 0.1 to 1 µM.
Turning to `O=C(N[C@H]1CC[C@@H](Oc2nc(N3CCOCC3)cc3ncccc23)CC1)c1nccs1` [Compound 135, N-((1s,4s)-4-((7-morpholino-1,6-naphthyridin-5-yl)oxy)cyclohexyl)thiazole-2-carboxamide], the results for the 50% inhibitory concentration (IC50) in experiment [1] and in experiment [2] were less than 0.0005 µM and 0.1 to 1 µM, respectively.
The matching figures for `O=C(N[C@H]1CC[C@@H](Oc2nc(N3CCOCC3)cc3ncccc23)CC1)c1cc[nH]c1` [Compound 140, N-((1s,4s)-4-((7-morpholino-1,6-naphthyridin-5-yl)oxy)cyclohexyl)-1H-pyrrole-3-carboxamide]: less than 0.0005 µM and less than 0.1 µM.
Taken in the same sequence, the figures for `O=C(N[C@H]1CC[C@@H](Oc2nc(N3CCOCC3)cc3ncccc23)CC1)c1ncco1` [Compound 142, N-((1s,4s)-4-((7-morpholino-1,6-naphthyridin-5-yl)oxy)cyclohexyl)oxazole-2-carboxamide] were 0.0005 to 0.001 µM and less than 0.1 µM.
Taken in the same sequence, the figures for `O=C(N[C@H]1CC[C@@H](Oc2nc(N3CCOCC3)cc3ncccc23)CC1)c1c[nH]cn1` [Compound 144, N-((1s,4s)-4-((7-morpholino-1,6-naphthyridin-5-yl)oxy)cyclohexyl)-1H-imidazole-4-carboxamide] were 0.0005 to 0.001 µM and less than 0.1 µM.

Usually IC50 stands for the point on the concentration scale where inhibition reaches its midpoint.

The values are drawn from patent US20240246960A1 (adMare Therapeutics Society, priority 2021, published 2024).
